How the values were obtained:
[1] = system: AML cell lines and the KMS11 mM cell line; assay: combination tests (FIG. 12); type: cell-based; details: in combination with fluvastatin
Text: FIG. 12. Combination tests.

AML-3 cell line [2] = assay: potentiation of statin cytotoxic/apoptotic effects by agents that mimic DP activities; type: cell-based; details: for potentiation of the cytotoxic effects of statins / statin cancer cell death: in combination with statin (forskolin with fluvastatin)
Protocol: The mechanism of action was investigated. First, to tease apart which of DP's many activities may be functionally critical, the synergistic potential of a panel of agents that mimics DP in one or more of its activities was tested (see Table 1).
As cilostazol inhibits PDE3 which activates. PKA, studies were carried out using various PKA activators, including forskolin, a cell permeable analog of cAMP, db-cAMP, and a PDE3 inhibitor. […] Inhibition of PDEs 6, 9 and 11 by zaprinast is expected to raise cGMP but not cAMP levels.

KMS11 = assay: potentiation of statin cytotoxic effects by agents that mimic DP activities; type: cell-based; details: in combination with statin
Protocol: (§1) As cilostazol inhibits PDE3 which activates. PKA, studies were carried out using various PKA activators, including forskolin, a cell permeable analog of cAMP, db-cAMP, and a PDE3 inhibitor.

AML-2 = assay: as above; type: cell-based; details: in combination with statin
Protocol: as §1

[3] = system: KMS11-luc (KMS11 cells stably expressing luciferase)
Text: Tumours were imaged in mice on designated days by whole-body imaging using the IVIS imaging system illustrated by a representative image (C). Briefly, mice were i.p. injected with luciferein followed by anesthetization with isoflurane. Signal intensity was quantified using Living Image versio 2.50.2 (Xenogen) by summing detected photon counts from dorsal and ventral images.

CREB phosphorylation = CREB phosphorylation immunoblot (LI-COR quantification); type: cell-based; details: AML-3 cell line, 2 hours post-treatment
Protocol: as §1

[4] = system: primary AML patient samples; assay: apoptosis by Annexin V and propidium iodide dual staining; type: cell-based; details: 48 hrs
Text: AV−/PI−=live cells, AV+/PI−=early apoptosis, AV+/PI+=late apoptosis, AV−/PI+=necrosis.

AML-3 cell line [5] = assay: apoptosis by fixed PI, TUNEL and PARP cleavage; details: combination of dipyridamole and atorvastatin, 48 hrs; MVA dependant
[6] = system: HMGCR mRNA in primary AML patient samples; assay: HMGCR mRNA levels by real-time PCR (SYBR Green); type: cell-based; details: combination of statins and dipyridamole, 24 hours post compound treatment
Protocol: (§2) RNA from primary AML and LP1 cells was harvested 24 and 16 hours post compound treatment respectively using TRIZOL reagent. HMGCR mRNA levels were assessed using real-time PCR (SYBR Green). […] For example, Fluva 2 indicates a fluvastatin concentration of 2 μM.

[7] = system: breast cancer cell lines (e.g. MCF-7); assay: potentiation and synergy with statin in breast cancer cell lines; type: cell-based; details: with fluvastatin, 72 hours
Protocol: (§3) Atorvastatin was used in A549's and fluvastatin the breast cancer cell lines to asses potentiation and synergy.
(§4) Experiments in breast cancer cell lines (e.g. MCF-7) as well as the lung cancer cell lines (e.g. A549) were carried out similarly as described above.
(§5) Atorvastatin was used in A549's and fluvastatin the breast cancer cell lines to assess potentiation and synergy.

[8] = system: KMS11 Multiple Myeloma (MM) cells; assay: chemical screen for compounds potentiating the anti-proliferative/cytotoxic effect of atorvastatin (MTS); type: cell-based; details: sublethal doses in combination with atorvastatin (IC20), 72 hours
Protocol: A hundred compounds from the chemical library (see text) were assayed at varying concentrations (5-50 μM).
One hundred compounds were evaluated for their ability to potentiate the anti-proliferative activity of atorvastatin on statin-sensitive KMS11 mM cells. Briefly, cells were exposed to sublethal doses of atorvastatin (IC20) alone and in combination with sublethal doses of the compounds.

A549 = assay: potentiation and synergy with statin in lung cancer cell line; type: cell-based; details: with atorvastatin, 72 hours
Protocol: as §3, §4, §5

[9] = system: HMGCR mRNA in LP1 mM cells; assay: HMGCR mRNA levels by real-time PCR (SYBR Green); type: cell-based; details: combination of statins and dipyridamole, 16 hours post compound treatment
Protocol: as §2

KMS11 cell line = assay: apoptosis by fixed PI, TUNEL and PARP cleavage; details: combination of dipyridamole and atorvastatin, 48 hrs; MVA dependant
[10] = p.o. three times a week for 37 days initiated 2 days post KMS11-luc injection, alone

O=C1CCc2cc(OCCCCc3nnnn3C3CCCCC3)ccc2N1 [Cilostazol, cilostazol]
level of potentiation compared with dipyridamole+fluvastatin [1]: similar | potentiation of fluvastatin cell death [1]: potentiated | potentiation of the cytotoxic effects of statins / statin cancer cell death (AML-3 cell line [2]): potentiated | potentiation of the cytotoxic effects of statins (KMS11): potentiated | potentiation of the cytotoxic effects of statins (AML-2): potentiated

CC(C)c1c(C(=O)Nc2ccccc2)c(-c2ccccc2)c(-c2ccc(F)cc2)n1CC[C@@H](O)C[C@@H](O)CC(=O)O [atorvastatin]
effect on tumour growth, lower doses alone ([3]; lower doses, p.o. 3 times a week): no significant effect | survival [3, 10]: prolonged | tumor burden [3, 10]: significantly reduced

CCCC(=O)Nc1ncnc2c1ncn2[C@@H]1O[C@@H]2COP(=O)(O)O[C@H]2[C@H]1OC(=O)CCC [db-cAMP, dibutyryl-cAMP]
CREB phosphorylation (CREB phosphorylation): increase | apoptotic effects in combination with atorvastatin (AML-3 cell line [2]; 0.25 mM in combination with atorvastatin, 48 hours post treatment): recapitulated the DP-atorvastatin apoptotic effects

OCCN(CCO)c1nc(N2CCCCC2)c2nc(N(CCO)CCO)nc(N3CCCCC3)c2n1 [dipyridamole]
CREB phosphorylation (CREB phosphorylation): increase | induction of apoptosis ([4]; in combination with atorvastatin): induced apoptosis | induction of apoptosis ([4]; in combination with fluvastatin): induced apoptosis | induction of apoptosis (AML-3 cell line [5]): induced apoptosis | upregulation of HMGCR mRNA [6]: prevents the upregulation | potentiation of the anti-cancer effects of statins [7]: potentiated | potentiation of the anti-proliferative activity of atorvastatin [8]: remarkable potentiation | potentiation of the anti-cancer effects of statins (A549): potentiated | upregulation of HMGCR mRNA [9]: prevents the upregulation | induction of apoptosis (KMS11 cell line): induced apoptosis

C=C[C@@]1(C)CC(=O)[C@]2(O)[C@@]3(C)[C@@H](O)CCC(C)(C)[C@@H]3[C@H](O)[C@H](OC(C)=O)[C@@]2(C)O1 [forskolin]
potentiation of the cytotoxic effects of statins / statin cancer cell death (AML-3 cell line [2]): potentiated
